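The concentration for 50% growth inhibition is given as GI50. TGI is the concentration that stops growth completely.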
Key:
Assay in all cases: NCI-60 cell line screen, 384-well format; in the data active = GI50 below about 0.43 µM; inactive = the rest
TK-10 renal = tested on: TK-10 renal
A498 renal = tested on: A498 renal
MCF7 breast = tested on: MCF7 breast
SK-MEL-28 melanoma = tested on: SK-MEL-28 melanoma
SF-295 CNS = tested on: SF-295 CNS
NCI-H23 lung = tested on: NCI-H23 lung
HOP-92 NSCLC = tested on: HOP-92 NSCLC
NCI-H322M lung = tested on: NCI-H322M lung
SN12C renal = tested on: SN12C renal
MOLT-4 leukemia = tested on: MOLT-4 leukemia
SF-268 CNS = tested on: SF-268 CNS
OVCAR-3 ovarian = tested on: OVCAR-3 ovarian
HL-60(TB) leukemia = tested on: HL-60(TB) leukemia
MDA-MB-231 breast = tested on: MDA-MB-231 breast
HCT-116 colon = tested on: HCT-116 colon
MDA-MB-468 breast = tested on: MDA-MB-468 breast
IGROV1 ovarian = tested on: IGROV1 ovarian
HS 578T breast = tested on: HS 578T breast
U251 glioblastoma = tested on: U251 glioblastoma
A549 NSCLC = tested on: A549 NSCLC
CAKI-1 renal = tested on: CAKI-1 renal
UACC-62 melanoma = tested on: UACC-62 melanoma
COLO 205 colon = tested on: COLO 205 colon
NCI-H460 NSCLC = tested on: NCI-H460 NSCLC
UACC-257 melanoma = tested on: UACC-257 melanoma
SR leukemia = tested on: SR leukemia
SF-539 CNS = tested on: SF-539 CNS
HT29 colon = tested on: HT29 colon
MDA-MB-435 melanoma = tested on: MDA-MB-435 melanoma
MALME-3M melanoma = tested on: MALME-3M melanoma
SNB-75 CNS = tested on: SNB-75 CNS
HCT-15 colon = tested on: HCT-15 colon
RPMI-8226 leukemia = tested on: RPMI-8226 leukemia
NCI-H522 lung = tested on: NCI-H522 lung
OVCAR-5 ovarian = tested on: OVCAR-5 ovarian
SNB-19 CNS = tested on: SNB-19 CNS
T-47D breast = tested on: T-47D breast
SK-MEL-5 melanoma = tested on: SK-MEL-5 melanoma
SK-OV-3 ovarian = tested on: SK-OV-3 ovarian
OVCAR-4 ovarian = tested on: OVCAR-4 ovarian
KM12 colon = tested on: KM12 colon
PC-3 prostate = tested on: PC-3 prostate
ACHN renal = tested on: ACHN renal
NCI-H226 lung = tested on: NCI-H226 lung
HOP-62 NSCLC = tested on: HOP-62 NSCLC
M14 melanoma = tested on: M14 melanoma
EKVX NSCLC = tested on: EKVX NSCLC
OVCAR-8 ovarian = tested on: OVCAR-8 ovarian
BT-549 breast = tested on: BT-549 breast
LOX IMVI melanoma = tested on: LOX IMVI melanoma
NCI/ADR-RES ovarian = tested on: NCI/ADR-RES ovarian
HCC-2998 colon = tested on: HCC-2998 colon
DU-145 prostate = tested on: DU-145 prostate
RXF 393 renal = tested on: RXF 393 renal

O=C(O)CCCCC(CCSCc1ccccc1)SCc1ccccc1 (stereo not drawn)
67.1 µM: TGI (SR leukemia)
> 100 µM: TGI (TK-10 renal) | TGI (A498 renal) | TGI (MCF7 breast) | TGI (SK-MEL-28 melanoma) | TGI (SF-295 CNS) | TGI (NCI-H23 lung) | TGI (HOP-92 NSCLC) | TGI (NCI-H322M lung) | TGI (SN12C renal) | TGI (MOLT-4 leukemia) | TGI (SF-268 CNS) | TGI (OVCAR-3 ovarian) | TGI (HL-60(TB) leukemia) | TGI (MDA-MB-231 breast) | TGI (HCT-116 colon) | TGI (MDA-MB-468 breast) | TGI (IGROV1 ovarian) | TGI (HS 578T breast) | TGI (U251 glioblastoma) | TGI (A549 NSCLC) | TGI (CAKI-1 renal) | TGI (UACC-62 melanoma) | TGI (COLO 205 colon) | TGI (NCI-H460 NSCLC) | TGI (UACC-257 melanoma) | TGI (SF-539 CNS) | TGI (HT29 colon) | TGI (MDA-MB-435 melanoma) | TGI (MALME-3M melanoma) | TGI (SNB-75 CNS) | TGI (HCT-15 colon) | TGI (OVCAR-5 ovarian) | TGI (SNB-19 CNS) | TGI (T-47D breast) | TGI (SK-MEL-5 melanoma) | TGI (SK-OV-3 ovarian) | TGI (OVCAR-4 ovarian) | TGI (KM12 colon) | TGI (PC-3 prostate) | TGI (ACHN renal) | TGI (NCI-H226 lung) | TGI (HOP-62 NSCLC) | TGI (M14 melanoma) | TGI (EKVX NSCLC) | TGI (OVCAR-8 ovarian) | TGI (BT-549 breast) | TGI (LOX IMVI melanoma) | TGI (NCI/ADR-RES ovarian) | TGI (HCC-2998 colon) | TGI (DU-145 prostate) | TGI (RXF 393 renal)
inactive: GI50 (TK-10 renal) 50.2 µM | GI50 (A498 renal) 42.3 µM | GI50 (MCF7 breast) 66.9 µM | GI50 (SK-MEL-28 melanoma) > 100 µM | GI50 (SF-295 CNS) 39.3 µM | GI50 (NCI-H23 lung) 50.5 µM | GI50 (HOP-92 NSCLC) > 100 µM | GI50 (NCI-H322M lung) 90.6 µM | GI50 (SN12C renal) > 100 µM | GI50 (MOLT-4 leukemia) > 100 µM | GI50 (SF-268 CNS) > 100 µM | GI50 (OVCAR-3 ovarian) 45.2 µM | GI50 (HL-60(TB) leukemia) 58.8 µM | GI50 (MDA-MB-231 breast) > 100 µM | GI50 (HCT-116 colon) 47.5 µM | GI50 (MDA-MB-468 breast) 39.7 µM | GI50 (IGROV1 ovarian) 68.3 µM | GI50 (HS 578T breast) > 100 µM | GI50 (U251 glioblastoma) 45.3 µM | GI50 (A549 NSCLC) 44 µM | GI50 (CAKI-1 renal) > 100 µM | GI50 (UACC-62 melanoma) 75.7 µM | GI50 (COLO 205 colon) > 100 µM | GI50 (NCI-H460 NSCLC) 34.2 µM | GI50 (UACC-257 melanoma) 62.2 µM | GI50 (SR leukemia) 22.6 µM | GI50 (SF-539 CNS) > 100 µM | GI50 (HT29 colon) 53.7 µM | GI50 (MDA-MB-435 melanoma) > 100 µM | GI50 (MALME-3M melanoma) > 100 µM | GI50 (SNB-75 CNS) > 100 µM | GI50 (HCT-15 colon) 45.1 µM | GI50 (RPMI-8226 leukemia) 33.7 µM | GI50 (NCI-H522 lung) 27.6 µM | GI50 (OVCAR-5 ovarian) > 100 µM | GI50 (SNB-19 CNS) 94 µM | GI50 (T-47D breast) 68.7 µM | GI50 (SK-MEL-5 melanoma) 33.4 µM | GI50 (SK-OV-3 ovarian) > 100 µM | GI50 (OVCAR-4 ovarian) 59 µM | GI50 (KM12 colon) 45.4 µM | GI50 (PC-3 prostate) 59.6 µM | GI50 (ACHN renal) > 100 µM | GI50 (NCI-H226 lung) 97.6 µM | GI50 (HOP-62 NSCLC) 50.4 µM | GI50 (M14 melanoma) > 100 µM | GI50 (EKVX NSCLC) 37.3 µM | GI50 (OVCAR-8 ovarian) > 100 µM | GI50 (BT-549 breast) > 100 µM | GI50 (LOX IMVI melanoma) > 100 µM | GI50 (NCI/ADR-RES ovarian) > 100 µM | GI50 (HCC-2998 colon) 47.5 µM | GI50 (DU-145 prostate) 64 µM | GI50 (RXF 393 renal) > 100 µM
73.3 µM: TGI (NCI-H522 lung)
84.4 µM: TGI (RPMI-8226 leukemia)

Source: PubChem BioAssay (NCI)
